The values that follow are results of earlier work, collected in patent publication EP4260848A1, “PHARMACEUTICAL COMPOSITION FOR SOLID DOSAGE FORM CONTAINING NILOTINIB AND PROCESS FOR ITS PREPARATION” (Lotus Pharmaceutical Co., Ltd., priority 2022, dated 2023).

Structures can show the parent of a compound that is named as a salt.

Assay in data set [1]: not given
This is another data set of the same source.

As for `Cc1cn(-c2cc(NC(=O)c3ccc(C)c(Nc4nccc(-c5cccnc5)n4)c3)cc(C(F)(F)F)c2)cn1` [Nilotinib hydrochloride], where the note is “all solid forms (anhydrates, hydrates, solvates)”, the aqueous solubility result is “poor aqueous solubility”.
Take `Cc1cn(-c2cc(NC(=O)c3ccc(C)c(Nc4nccc(-c5cccnc5)n4)c3)cc(C(F)(F)F)c2)cn1` [Nilotinib, 4-methyl-N-[3-(4-methylimidazol-1-yl)-5-(trifluoromethyl)phenyl]-3-[(4-pyridin-3-ylpyrimidin-2-yl)amino]benzamide]: the pKa1 in data set [1] (determined) is 2.1. The pKa2 in data set [1] (estimated) is on record as 5.4. For the same compound, where the note is “dependence on pH”, the “solubility in aqueous solutions” value is “decreases with increasing pH”.
